Reference: PubChem BioAssay (NCI)
“And” between values parts separate entries of the source, which are not always exact repeats. Equal entries are not always repeated.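 The compound was tested at five concentrations on cells cultured in 96-well plates, with a 48-hour exposure period. GI50 marks 50% less growth. TGI is the concentration that stops growth completely.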

Experiments:
Assay in all cases: inhibition of tumour cell growth, NCI panel, 48 h
TK-10 renal = test system: TK-10 renal
BT-549 breast = test system: BT-549 breast
SF-268 CNS = test system: SF-268 CNS
MALME-3M melanoma = test system: MALME-3M melanoma
EKVX NSCLC = test system: EKVX NSCLC
SF-539 CNS = test system: SF-539 CNS
A549 NSCLC = test system: A549 NSCLC
HCC-2998 colon = test system: HCC-2998 colon
COLO 205 colon = test system: COLO 205 colon
SW-620 colon = test system: SW-620 colon

| Compound | GI50 (TK-10 renal) [µM] | TGI (TK-10 renal) [µM] | GI50 (BT-549 breast) [µM] | TGI (BT-549 breast) [µM] | GI50 (SF-268 CNS) [µM] | TGI (SF-268 CNS) [µM] | GI50 (MALME-3M melanoma) [µM] | TGI (MALME-3M melanoma) [µM] | GI50 (EKVX NSCLC) [µM] | TGI (EKVX NSCLC) [µM] | GI50 (SF-539 CNS) [µM] | TGI (SF-539 CNS) | GI50 (A549 NSCLC) [µM] | TGI (A549 NSCLC) [µM] | GI50 (HCC-2998 colon) [µM] | TGI (HCC-2998 colon) [µM] | GI50 (COLO 205 colon) [µM] | TGI (COLO 205 colon) [µM] | GI50 (SW-620 colon) [µM] | TGI (SW-620 colon) [µM] |
| --- | --- | --- | --- | --- | --- | --- | --- | --- | --- | --- | --- | --- | --- | --- | --- | --- | --- | --- | --- | --- |
| C/C(=N\NC(=O)c1ccncc1)c1ccccc1O | 3.03 | > 100 | 3.79 | 84.7 | 3.77 | > 100 | 5.39 | 97.3 | 2.34 | > 100 | 2.78 | > 100 µM | 3.86 | > 100 | 2.37 | 68.7 | 2.62 | > 100 | 5.27 | > 100 |
| COC(=O)C(NC(=O)c1ccccc1)c1ccc(OC)c(I)c1 (stereo not given) | 38.5 | > 100 | > 100 | > 100 | > 100 | > 100 |  |  | 89.1 | > 100 | > 100 | > 100 µM | 62.1 | > 100 | 54.5 | > 100 | 80.8 | > 100 | > 100 | > 100 |
| Cc1cc(C2(c3cc(C)c(O)c4ncccc34)OC(=O)c3ccccc32)c2cccnc2c1O |  |  | 5.26 | > 100 |  |  |  | > 100 | 0.0124 |  | 0.02 | 4.69 µM and 11.7 µM |  | 14 |  | > 100 | 0.405 | 28.5 | 0.0521 | > 100 |
| N#Cc1c(N/N=C/c2c(Cl)cccc2Cl)nc(N)nc1N1CCCC1 | 5.9 | > 100 | 11.3 | > 100 | > 100 | > 100 |  |  | 39.7 | > 100 | 1.77 | 5.58 µM | 3.65 | > 100 | 1.34 | 21 | 5.29 | > 100 | 1.38 | > 100 |
| N#Cc1c(N)nc(N2CCOCC2)c(C#N)c1-c1ccc(Cl)cc1Cl |  |  | 17.4 | 55.8 | 14.2 | 35.6 |  |  | 20.1 | 64.3 | 17.9 | 42.1 µM | 20.2 | 54.9 | 13.3 | 28.2 | 16.6 | 40.6 | 27.3 | > 100 |
| COc1ccc(C[C@H](N)C(=O)N[C@@H]2[C@@H](CO)OC(n3cnc4c(N(C)C)ncnc43)[C@@H]2O)cc1 (stereo not given in full) |  | 1.38 | 0.588 | 1.83 |  | 1.18 | 0.637 | 1.39 | 0.614 | 2.55 | 0.435 | 1.95 µM |  |  | 0.651 | 1.31 | 0.218 | 0.756 |  | 0.792 |
| Brc1ccc2c(c1)-c1ccccc1C1=NCCN12 | 1.5 | 7.18 | 1.88 | 6.07 | 1.77 | 9.44 | 1.35 | 2.97 |  |  | 1.63 | 4.38 µM | 0.548 | 3.58 | 1.3 | 8.49 | 0.652 | 2.33 | 0.44 | 10.4 |
| CS(=O)(=O)Nc1ccc(Nc2c3ccccc3nc3cc(Cl)ccc23)cc1 | 5.07 | 18.7 | 3.16 | 20 | 2.57 | 19.6 | 1.96 | 12.3 |  |  | 1.18 | 13.5 µM | 0.188 | 12.1 | 7.57 | 22.9 | 1.51 | 15.6 | 0.686 | 15.4 |
| CC(=O)Nc1ccc(C(=O)NN2C(=O)CSC2c2ccccc2)cc1 (stereo not given) |  | > 100 |  | 83 |  | > 100 |  |  |  | > 100 |  | > 100 µM |  | > 100 |  | > 100 |  | > 100 |  | > 100 |
| Clc1ccc(N=CNc2ccc(-c3nc4ccccc4[nH]3)cc2)cc1 | 7.52 | > 100 | 20.7 | 57.3 | 19.6 | > 100 |  |  | 0.482 | 34.5 |  |  | > 100 | > 100 |  |  | 3.99 | > 100 | > 100 | > 100 |
| Cc1ccc(S(=O)(=O)NCc2cccc([N+](=O)[O-])c2)cc1 |  | > 100 |  | > 100 |  | > 100 |  | > 100 |  | > 100 |  | > 100 µM |  | > 100 |  |  |  | > 100 |  | > 100 |
| OCCn1c(-c2ccncc2)c(-c2ccc(F)cc2)c2ncccc21 | > 25 | > 25 | > 25 | > 25 | > 25 | > 25 | > 25 | > 25 |  |  | > 25 | > 25 µM | > 25 | > 25 | > 25 | > 25 | > 25 | > 25 | > 25 | > 25 |
